Values quoted from earlier work, collected in patent publication US20160304829A1, “Automated Superparamagnetic Particle Handling System” (LIFE TECHNOLOGIES AS, priority 2006, published 2016).

Target: streptavidin (Streptomyces avidinii, UniProt P22629)
Settings: Piran & Riordan 1990

streptavidin, sequence (P22629 25-183): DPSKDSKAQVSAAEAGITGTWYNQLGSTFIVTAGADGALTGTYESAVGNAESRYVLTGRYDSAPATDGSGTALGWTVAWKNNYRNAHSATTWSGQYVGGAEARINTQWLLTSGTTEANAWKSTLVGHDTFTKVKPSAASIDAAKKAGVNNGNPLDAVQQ

In the case of `O=C(O)CCCC[C@@H]1SC[C@@H]2NC(=O)N[C@@H]21` [biotin, cis-hexahydro-2oxo-1H-thieno [3,4]imidazole-4-pentanoic acid], the “dissociation from streptavidin, times faster than dissociation from avidin” value is listed as “about 30 times”.
